In one test the test system is HAP1 MTAP-intact. The experiment in a line: SDMA in-cell western assay, HAP1 MTAP-intact cell line. Conditions: Homo sapiens. The format is cell-based. The procedure, abridged: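 IC50 values come from SDMA in-cell western staining of HAP1 cells. The MTAP-intact line carries endogenous MTAP, while its MTAP-deleted counterpart lacks MTAP entirely. A selectivity ratio of at least 3 fold marks a compound as MTAP-selective.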

Test [1] concerns the target T1, PRMT5 (Homo sapiens, UniProt O14744).
T1 construct: purchased Viva (custom protein)
The experiment in a line: PRMT5 IC50 assay in the presence of MTA as cofactor. The class given is biochemical. Particulars: for IC50: PRMT5, MTA as cofactor; for SAM/MTA Ratio: ratio between Ki in the presence of SAM and Ki in the presence of MTA. The procedure, abridged: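 For the SAM-containing format, dividing IC50 by 1.5 yields Ki; for the MTA-containing format the divisor is 13.5. A third format without cofactor gives IC50 alone.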

Test [2] has as its target T1, PRMT5. Briefly: PRMT5 IC50 assay in the presence of SAM as cofactor. The format is biochemical. The procedure, abridged: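 MTA-dependent versus SAM-dependent inhibition of human PRMT5 was assessed by IC50; conversion factors of 13.5 and 1.5 gave the corresponding Ki.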
The target of test [3] is T1, PRMT5. The experiment in a line: PRMT5 IC50 assay with no cofactor. The class given is biochemical. Conditions: read-out: No Co-factor IC50. The method, boiled down: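 Each compound is tested on PRMT5 in the presence of SAM, of MTA, and without any cofactor. Ki values are then back-calculated using fixed factors of 1.5 (SAM) and 13.5 (MTA), and the two Ki values are compared as a ratio.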

For a further test, the system named is HAP1 MTAP-deleted. The experiment in a line: SDMA in-cell western assay, HAP1 MTAP-deleted cell line. Conditions: for IC50: Homo sapiens, HAP1 MTAP-deleted cell line; for MTAP Intact/Deleted Ratio: IC50 ratio HAP1 MTAP-intact / HAP1 MTAP-deleted. The class given is cell-based. The procedure, abridged: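 Readout is cellular SDMA signal by in-cell western, with IC50 values derived from it. The cells are MTAP-null HAP1, matched to an isogenic MTAP-intact HAP1 line.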

The values that follow come from US11986471B2, “Compounds and methods of use” (Tango Therapeutics, Inc., priority 2018, dated 2024).

T1 sequence (O14744 whole entry): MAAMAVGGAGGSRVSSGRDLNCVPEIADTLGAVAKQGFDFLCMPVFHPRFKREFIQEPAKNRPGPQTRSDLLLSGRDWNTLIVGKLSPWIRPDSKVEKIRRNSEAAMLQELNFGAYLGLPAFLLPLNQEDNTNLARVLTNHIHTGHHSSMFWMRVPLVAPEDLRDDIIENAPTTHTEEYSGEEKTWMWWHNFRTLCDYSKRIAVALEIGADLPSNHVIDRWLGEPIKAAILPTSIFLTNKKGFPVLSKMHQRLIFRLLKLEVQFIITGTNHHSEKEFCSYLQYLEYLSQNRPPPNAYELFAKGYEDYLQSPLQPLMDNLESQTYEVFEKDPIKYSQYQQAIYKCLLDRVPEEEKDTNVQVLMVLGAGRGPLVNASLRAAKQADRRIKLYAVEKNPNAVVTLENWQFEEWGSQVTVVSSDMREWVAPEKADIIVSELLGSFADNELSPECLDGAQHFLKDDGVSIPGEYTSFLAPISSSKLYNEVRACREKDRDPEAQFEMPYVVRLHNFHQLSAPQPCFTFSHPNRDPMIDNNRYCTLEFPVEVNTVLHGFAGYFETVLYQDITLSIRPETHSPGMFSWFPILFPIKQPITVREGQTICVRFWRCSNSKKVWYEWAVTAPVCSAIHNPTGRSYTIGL
T1 sequence (Q9BQA1 whole entry partner): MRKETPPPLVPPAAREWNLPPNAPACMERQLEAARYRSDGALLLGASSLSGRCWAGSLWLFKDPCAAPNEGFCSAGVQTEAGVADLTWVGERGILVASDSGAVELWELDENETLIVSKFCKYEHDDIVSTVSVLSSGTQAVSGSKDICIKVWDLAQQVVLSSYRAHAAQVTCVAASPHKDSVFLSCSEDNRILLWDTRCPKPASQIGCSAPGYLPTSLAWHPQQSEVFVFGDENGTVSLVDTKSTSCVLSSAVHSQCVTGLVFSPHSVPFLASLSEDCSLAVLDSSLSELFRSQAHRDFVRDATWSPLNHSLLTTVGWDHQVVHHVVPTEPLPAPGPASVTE

`CC(=O)N1CC(Nc2cc(C(=O)NC[C@H](O)CN3CCc4cc(OCc5cnco5)ccc4C3)nc(C(C)C)n2)C1` [Compound 349, (S)-6-((1-acetylazetidin-3-yl)amino)-N-(2-hydroxy-3-(6-(oxazol-5-ylmethoxy)-3,4-dihydroisoquinolin-2(1H)-yl)propyl)-2-isopropylpyrimidine-4-carboxamide]: the half-inhibitory concentration (IC50) with HAP1 MTAP-intact was less than 1000 nM; on PRMT5 [1] it was 50 to 500 nM; on PRMT5 [2], 50 to 500 nM; on PRMT5 [3] it was 500 to 5000 nM; with HAP1 MTAP-deleted, less than 1000 nM. Further, the “SAM/MTA Ratio” value at PRMT5 [1] is “A (a Ki ratio greater than or equal to 10 fold between the Ki in the presence of SAM and the Ki in the presence of MTA)”. The “MTAP Intact/Deleted Ratio” value with HAP1 MTAP-deleted was “C* (an IC50 ratio of less than 3 fold between the IC50 in the HAP1 MTAP-intact cell line and the HAP1 MTAP-deleted cell line)”.
For the compound `Cc1ncoc1COc1ccc2c(c1Br)CCN(C[C@@H](O)CNC(=O)c1ccnc(NC3CCCC3)c1)C2` [Compound 350, (S)—N-(3-(5-bromo-6-((4-methyloxazol-5-yl)methoxy)-3,4-dihydroisoquinolin-2(1H)-yl)-2-hydroxypropyl)-2-(cyclopentylamino)isonicotinamide], the IC50 with HAP1 MTAP-intact is no less than 10000 nM; at PRMT5 [1] it was 50 to 500 nM; at PRMT5 [2], 50 to 500 nM; on PRMT5 [3], no less than 5000 nM; in the test with HAP1 MTAP-deleted, no less than 10000 nM. For the same compound, on PRMT5 [1], the “SAM/MTA Ratio” value is “A (a Ki ratio greater than or equal to 10 fold between the Ki in the presence of SAM and the Ki in the presence of MTA)”. Further, the “MTAP Intact/Deleted Ratio” value with HAP1 MTAP-deleted was “C* (an IC50 ratio of less than 3 fold between the IC50 in the HAP1 MTAP-intact cell line and the HAP1 MTAP-deleted cell line)”.
`Cc1c(OCc2cnco2)ccc2c1CCN(C[C@@H](O)CNC(=O)c1cccc(NC3CCC3)c1)C2` [Compound 351, 3-(cyclobutylamino)-N-[(2S)-2-hydroxy-3-{5-methyl-6-[(1,3-oxazol-5-yl)methoxy]-1,2,3,4-tetrahydroisoquinolin-2-yl}propyl]benzamide]: the IC50 was no less than 10000 nM with HAP1 MTAP-intact; 50 to 500 nM at PRMT5 [1]; 500 to 5000 nM at PRMT5 [2]; no less than 5000 nM at PRMT5 [3]; no less than 10000 nM in the test on HAP1 MTAP-deleted. In addition, the “SAM/MTA Ratio” value on PRMT5 [1] is “A (a Ki ratio greater than or equal to 10 fold between the Ki in the presence of SAM and the Ki in the presence of MTA)”. Also, the “MTAP Intact/Deleted Ratio” value in the test on HAP1 MTAP-deleted is “C* (an IC50 ratio of less than 3 fold between the IC50 in the HAP1 MTAP-intact cell line and the HAP1 MTAP-deleted cell line)”.
Consider `CC(=O)N1CC(Nc2cc(C(=O)NC[C@H](O)CN3CCc4c(ccc(OCc5cnco5)c4Cl)C3)nc(N3CCOCC3)n2)C1` [Compound 352, (S)-6-((1-acetylazetidin-3-yl)amino)-N-(3-(5-chloro-6-(oxazol-5-ylmethoxy)-3A-dihydroisoquinolin-2(1H)-yl)-2-hydroxypropyl)-2-morpholinopyrimidine-4-carboxamide], for which the IC50 in the test with HAP1 MTAP-intact is no less than 10000 nM; at PRMT5 [1], 50 to 500 nM; at PRMT5 [2], 50 to 500 nM; on PRMT5 [3] it was 500 to 5000 nM; in the test on HAP1 MTAP-deleted it was 1000 to 10000 nM. In addition, at PRMT5 [1], the “SAM/MTA Ratio” value was “A (a Ki ratio greater than or equal to 10 fold between the Ki in the presence of SAM and the Ki in the presence of MTA)”. For the same compound, in the test with HAP1 MTAP-deleted, the “MTAP Intact/Deleted Ratio” value was “C* (an IC50 ratio of less than 3 fold between the IC50 in the HAP1 MTAP-intact cell line and the HAP1 MTAP-deleted cell line)”.
As to `CCN1CCN(c2nc(NC3COC3)cc(C(=O)NC[C@H](O)CN3CCc4cc(OCc5cnco5)ccc4C3)n2)CC1` [Compound 353], the IC50 in the test on HAP1 MTAP-intact lay within 1000 to 10000 nM; on PRMT5 [1], 50 to 500 nM; on PRMT5 [2] it was 50 to 500 nM; on PRMT5 [3], 500 to 5000 nM; in the test on HAP1 MTAP-deleted it was 1000 to 10000 nM. In addition, at PRMT5 [1], the “SAM/MTA Ratio” value is “A (a Ki ratio greater than or equal to 10 fold between the Ki in the presence of SAM and the Ki in the presence of MTA)”. Moreover, the “MTAP Intact/Deleted Ratio” value in the test with HAP1 MTAP-deleted is “C* (an IC50 ratio of less than 3 fold between the IC50 in the HAP1 MTAP-intact cell line and the HAP1 MTAP-deleted cell line)”.
For the compound `Cc1ncoc1COc1ccc2c(c1Br)CCN(C[C@@H](O)CNC(=O)c1cccc(NC3CCC3)c1)C2` [Compound 354, (S)—N-(3-(5-bromo-6-((4-methyloxazol-5-yl)methoxy)-3,4-dihydroisoquinolin-2(1H)-yl)-2-hydroxypropyl)-3-(cyclobutylamino)benzamide], the IC50 was no less than 10000 nM in the test on HAP1 MTAP-intact; 500 to 5000 nM at PRMT5 [1]; 500 to 5000 nM on PRMT5 [2]; no less than 5000 nM on PRMT5 [3]; no less than 10000 nM in the test with HAP1 MTAP-deleted. For the same compound, the “MTAP Intact/Deleted Ratio” value in the test on HAP1 MTAP-deleted is “C* (an IC50 ratio of less than 3 fold between the IC50 in the HAP1 MTAP-intact cell line and the HAP1 MTAP-deleted cell line)”.
Regarding `O=C(NC[C@H](O)CN1CCc2cc(OCc3cnco3)ccc2C1)c1cncc(NC2CCOC2)c1` (stereo partly drawn) [Compound 355, N—((S)-2-hydroxy-3-(6-(oxazol-5-ylmethoxy)-3,4-dihydroisoquinolin-2(1H)-yl)propyl)-5-((tetrahydrofuran-3-yl)amino)nicotinamide], the 50% inhibitory concentration (IC50) was no less than 10000 nM in the test on HAP1 MTAP-intact; 50 to 500 nM on PRMT5 [1]; 500 to 5000 nM at PRMT5 [2]; no less than 5000 nM on PRMT5 [3]; no less than 10000 nM with HAP1 MTAP-deleted. Further, the “SAM/MTA Ratio” value on PRMT5 [1] is “A (a Ki ratio greater than or equal to 10 fold between the Ki in the presence of SAM and the Ki in the presence of MTA)”. In the test with HAP1 MTAP-deleted, the “MTAP Intact/Deleted Ratio” value is “C* (an IC50 ratio of less than 3 fold between the IC50 in the HAP1 MTAP-intact cell line and the HAP1 MTAP-deleted cell line)”.
On to `Cc1c(OCc2cnco2)ccc2c1CCN(C[C@@H](O)CNC(=O)c1ccnc(NC3CCCC3)c1)C2` [Compound 356, 2-(cyclopentylamino)-N-[(2S)-2-hydroxy-3-{5-methyl-6-[(1,3-oxazol-5-yl)methoxy]-1,2,3,4-tetrahydroisoquinolin-2-yl}propyl]pyridine-4-carboxamide], for which the IC50 is no less than 10000 nM in the test with HAP1 MTAP-intact; 50 to 500 nM at PRMT5 [1]; 50 to 500 nM on PRMT5 [2]; no less than 5000 nM on PRMT5 [3]; no less than 10000 nM in the test on HAP1 MTAP-deleted. Further, the “SAM/MTA Ratio” value on PRMT5 [1] is “A (a Ki ratio greater than or equal to 10 fold between the Ki in the presence of SAM and the Ki in the presence of MTA)”. In the test on HAP1 MTAP-deleted, the “MTAP Intact/Deleted Ratio” value is “C* (an IC50 ratio of less than 3 fold between the IC50 in the HAP1 MTAP-intact cell line and the HAP1 MTAP-deleted cell line)”.
Regarding `O=C(NC[C@H](O)CN1CCc2c(ccc(OCc3cnco3)c2Cl)C1)c1ccnc(NC2CC(F)(F)C2)c1` [Compound 357, (S)—N-(3-(5-chloro-6-(oxazol-5-ylmethoxy)-3,4-dihydroisoquinolin-2(1H)-yl)-2-hydroxypropyl)-2-((3,3-difluorocyclobutyl)amino)isonicotinamide], the IC50 with HAP1 MTAP-intact was no less than 10000 nM; at PRMT5 [1], 50 to 500 nM; on PRMT5 [2] it was 500 to 5000 nM; on PRMT5 [3], no less than 5000 nM; in the test with HAP1 MTAP-deleted it was no less than 10000 nM. At PRMT5 [1], the “SAM/MTA Ratio” value is “A (a Ki ratio greater than or equal to 10 fold between the Ki in the presence of SAM and the Ki in the presence of MTA)”. In addition, the “MTAP Intact/Deleted Ratio” value with HAP1 MTAP-deleted was “C* (an IC50 ratio of less than 3 fold between the IC50 in the HAP1 MTAP-intact cell line and the HAP1 MTAP-deleted cell line)”.
Regarding `Cc1ncoc1COc1ccc2c(c1Br)CCN(C[C@@H](O)CNC(=O)c1cc(NC3CCCC3)ncn1)C2` [Compound 358, (S)—N-(3-(5-bromo-6-((4-methyloxazol-5-yl)methoxy)-3,4-dihydroisoquinolin-2(1H)-yl)-2-hydroxypropyl)-6-(cyclopentylamino)pyrimidine-4-carboxamide], the IC50 with HAP1 MTAP-intact was no less than 10000 nM; on PRMT5 [1], 500 to 5000 nM; at PRMT5 [2], 500 to 5000 nM; at PRMT5 [3], no less than 5000 nM; with HAP1 MTAP-deleted, no less than 10000 nM. The “SAM/MTA Ratio” value on PRMT5 [1] is “A (a Ki ratio greater than or equal to 10 fold between the Ki in the presence of SAM and the Ki in the presence of MTA)”. Moreover, the “MTAP Intact/Deleted Ratio” value with HAP1 MTAP-deleted is “C* (an IC50 ratio of less than 3 fold between the IC50 in the HAP1 MTAP-intact cell line and the HAP1 MTAP-deleted cell line)”.
Turning to `O=C(NC[C@H](O)CN1CCc2c(ccc(OCc3cnco3)c2Cl)C1)c1cncc(NC2CCOC2)c1` (stereo partly drawn) [Compound 359, N—((S)-3-(5-chloro-6-(oxazol-5-ylmethoxy)-3N-dihydroisoquinolin-2(1H)-yl)-2-hydroxypropyl)-5-((tetrahydrofuran-3-yl)amino)nicotinamide], the IC50 in the test with HAP1 MTAP-intact is no less than 10000 nM; on PRMT5 [1], 500 to 5000 nM; at PRMT5 [2] it was 500 to 5000 nM; on PRMT5 [3], no less than 5000 nM; with HAP1 MTAP-deleted, 1000 to 10000 nM. Further, the “SAM/MTA Ratio” value on PRMT5 [1] was “A (a Ki ratio greater than or equal to 10 fold between the Ki in the presence of SAM and the Ki in the presence of MTA)”. Further, in the test with HAP1 MTAP-deleted, the “MTAP Intact/Deleted Ratio” value is “C* (an IC50 ratio of less than 3 fold between the IC50 in the HAP1 MTAP-intact cell line and the HAP1 MTAP-deleted cell line)”.
